Test results taken from the NIST ThermoML archive (doi:10.1016/j.fluid.2016.10.005).

Test: molar heat capacity at constant pressure; mn = molality of the nth substance listed, in mol/kg
Settings: 101 kPa, Liquid, DSC

CCCCCOCCOCCOCCO [ethanol, 2-[2-[2-(pentyloxy)ethoxy]ethoxy]-] + O
molar heat capacity at constant pressure [J/K/mol]
Settings | 278.15 K | 283.15 K | 288.15 K | 293.15 K | 298.15 K | 308.15 K | 318.15 K | 328.15 K | 333.15 K
m1 = 0.0166 | 75.93 | 75.77 | 75.66 | 75.59 | 75.56 | 75.53 | 75.56 | 75.61 | 75.66
m1 = 0.0321 | 76.16 | 76 | 75.9 | 75.83 | 75.8 | 75.78 | 75.79 | 75.85 | 75.9
m1 = 0.0392 | 76.27 | 76.11 | 76 | 75.94 | 75.91 | 75.89 | 75.9 | 75.96 | 76
m1 = 0.06 | 76.59 | 76.43 | 76.32 | 76.26 | 76.22 | 76.2 | 76.21 | 76.27 | 76.32
m1 = 0.0876 | 77.01 | 76.85 | 76.74 | 76.68 | 76.64 | 76.62 | 76.63 | 76.68 | 76.74
m1 = 0.1214 | 77.52 | 77.36 | 77.26 | 77.2 | 77.15 | 77.13 | 77.14 | 77.2 | 77.24
m1 = 0.1388 | 77.79 | 77.63 | 77.53 | 77.47 | 77.42 | 77.4 | 77.41 | 77.47 | 77.51
m1 = 0.1661 | 78.19 | 78.05 | 77.95 | 77.9 | 77.85 | 77.81 | 77.85 | 77.89 | 77.91
m1 = 0.1861 | 78.49 | 78.35 | 78.26 | 78.21 | 78.16 | 78.12 | 78.21 | 78.2 | 78.21
m1 = 0.2119 | 78.88 | 78.75 | 78.66 | 78.62 | 78.57 | 78.55 | 78.65 | 78.59 | 78.59
m1 = 0.2272 | 79.1 | 78.99 | 78.91 | 78.86 | 78.81 | 78.84 | 78.89 | 78.81 | 78.78
m1 = 0.2499 | 79.44 | 79.34 | 79.27 | 79.22 | 79.18 | 79.27 | 79.21 | 79.1 | 79.08
m1 = 0.2726 | 79.77 | 79.7 | 79.64 | 79.59 | 79.56 | 79.68 | 79.49 | 79.36 | 79.36
m1 = 0.2949 | 80.1 | 80.06 | 80.02 | 79.97 | 79.97 | 80.07 | 79.75 | 79.59 | 79.62
m1 = 0.314 | 80.39 | 80.37 | 80.34 | 80.32 | 80.49 | 80.32 | 79.96 | 79.8 | 79.84
m1 = 0.3353 | 80.72 | 80.73 | 80.72 | 80.85 | 80.89 | 80.6 | 80.22 | 80.05 | 80.1
m1 = 0.3562 | 81.05 | 81.08 | 81.12 | 81.34 | 81.24 | 80.83 | 80.45 | 80.3 | –
m1 = 0.3851 | 81.51 | 81.58 | 81.77 | 81.87 | 81.68 | 81.19 | 80.78 | 80.63 | –
m1 = 0.4069 | 81.92 | 82.17 | 82.36 | 82.27 | 81.99 | 81.4 | 81.01 | 80.87 | –
m1 = 0.426 | 82.31 | 82.58 | 82.73 | 82.55 | 82.25 | 81.62 | 81.22 | 81.05 | –
m1 = 0.4405 | 82.64 | 82.93 | 82.99 | 82.77 | 82.43 | 81.77 | 81.37 | 81.17 | –
m1 = 0.4693 | 83.38 | 83.6 | 83.45 | 83.15 | 82.79 | 82.05 | 81.69 | 81.49 | –
m1 = 0.4858 | 83.82 | 83.98 | 83.71 | 83.35 | 82.97 | 82.23 | 81.84 | 81.65 | –
m1 = 0.5111 | 84.48 | 84.45 | 84.09 | 83.67 | 83.27 | 82.5 | 82.12 | 81.93 | –
m1 = 0.5381 | 85.09 | 84.88 | 84.46 | 84 | 83.58 | 82.8 | 82.41 | 82.22 | 82.29
m1 = 0.5586 | 85.48 | 85.2 | 84.75 | 84.26 | 83.82 | 83.04 | 82.64 | 82.43 | 82.51
m1 = 0.5849 | 85.92 | 85.58 | 85.09 | 84.59 | 84.14 | 83.34 | 82.92 | 82.72 | 82.8
m1 = 0.6026 | 86.2 | 85.82 | 85.31 | 84.76 | 84.33 | 83.52 | 83.11 | 82.91 | 83
m1 = 0.6299 | 86.63 | 86.13 | 85.61 | 85.06 | 84.6 | 83.81 | 83.39 | 83.19 | 83.28
m1 = 0.668 | 87.17 | 86.57 | 86.02 | 85.47 | 85 | 84.22 | 83.79 | 83.6 | 83.67
m1 = 0.7037 | 87.62 | 86.92 | 86.38 | 85.83 | 85.34 | 84.59 | 84.15 | 83.97 | 84.02
m1 = 0.731 | 87.93 | 87.19 | 86.64 | 86.08 | 85.59 | 84.86 | 84.42 | 84.23 | 84.3
m1 = 0.7714 | 88.33 | 87.59 | 87 | 86.43 | 85.97 | 85.25 | 84.81 | 84.65 | 84.71
m1 = 0.8141 | 88.74 | 88.03 | 87.41 | 86.86 | 86.39 | 85.68 | 85.26 | 85.09 | 85.14
m1 = 0.8293 | 88.85 | 88.14 | 87.53 | 86.96 | 86.5 | 85.79 | 85.38 | 85.24 | 85.28
m1 = 0.8679 | 89.21 | 88.51 | 87.87 | 87.32 | 86.88 | 86.14 | 85.78 | 85.64 | 85.68
m1 = 0.9125 | 89.61 | 88.91 | 88.26 | 87.74 | 87.28 | 86.56 | 86.22 | 86.09 | 86.13
m1 = 0.9573 | 90.05 | 89.36 | 88.69 | 88.18 | 87.71 | 87 | 86.71 | 86.56 | 86.62
